These results are taken from patent publication US20230115640A1, “BLASTOCYST-LIKE STRUCTURES FROM EXTENDED PLURIPOTENT STEM CELLS” (Salk Institute for Biological Studies, priority 2019, published 2023).

Several values for one entry are separate records, joined by “and”; a condition that tells them apart may be missing. Equal values may be shown once.

The test system of test [1] is mouse EPS cell aggregates. Kind of test: EPS-blastoid formation efficiency (blastocyst-like structures / total cell aggregates) in AggreWell 3D differentiation. It is filed as cell-based. The conditions noted are these: for Nblastoid/Ntotal (%), EPS-blastoid efficiency with treatment of Wnt antagonists: XAV939 5 μM or IWR-1-endo 10 μM added to medium at day 1, five days in blastoid induction medium; for EPS-blastoids formation (effect of WNT antagonists, in words): blastoid induction medium supplemented with antagonist. From the text: To further improve the differentiation conditions, different growth factors, cytokines, and small molecules were included to identify condition(s) that enable the generation of structures mimicking blastocysts (EPS-blastoids), which contain a cavity and an inner cell mass. […] Using this optimized condition, EPS-blastoids consistently emerged three days after cell seeding (FIG. 1D). EPS-blastoids continued to enlarge, reaching an early blastocyst-like size at around day five or day six. To quantify the efficiency of EPS-blastoid formation, the total number of blastocyst-like structures were counted, with this count divided it by the total number of cell aggregates.
EPS colonies were dissociated into single cells by incubation with TrypLE (Thermo Fisher Scientific, 12604-013). Cell resuspension was transferred into a 0.1% gelatin-coated plate and incubated at 37° C. for 30 min to allow irradiated MEF cells attach to the plate. The supernatant containing the EPS cells were collected, filtered through a 40 μm cell strainer, and counted using the TC-10 counter (Bio-Rad, 1450001). AggreWell 400 (STEMCELL Technologies, 34415) was prepared following the manufacturer's instructions. EPS-blastoid basal medium is composed of 25% TSC basal medium (see above), 25% N2B27 basal medium (see above), and 50% KSOM (see above). In some experiments, M16 (Sigma-Aldrich, M7292) was used to replace KSOM. Approximately 6,000 cells (five cells per microwell for 1200 microwells) were resuspended in EPS-blastoid basal medium supplemented with 2 μM ROCK inhibitor Y-27632 (Reagents Direct, 53-B80-50), 12.5 ng/ml rhFGF4 (R&D, 235F4025), 0.5 μg/ml Heparin (Sigma-Aldrich, H3149), 3 μM GSK3 inhibitor CHIR99021 (Reagents Direct, 27-H76), 5 ng/ml BMP4 (Proteintech, HZ-1040), and 0.5 μM A83-01 (Axon Medchem, 1421) and seeded into one well of the 24-well AggreWell plate. The plate was centrifuged at 300g for one minute and transferred into an incubator. The day of cell seeding was counted as day 0 of the process. Medium was removed 24 h later (day 1) and replaced with fresh medium without Y-27632. Additional medium change is optional for the rest of the EPS-blastoid formation process. Starting from day 4, blastoids were manually picked up using a mouth pipette (Sigma-Aldrich, A5177) under a stereomicroscope for analysis or downstream experiments. For testing of the effect of antagonists or inhibitors on EPS-blastoid induction, chemicals were added to the medium at day 1. XAV939 (5 μM; Tocris, 3748) or IWR-1-endo (10 μM; STEMCELL Technologies, 72562) was used to inhibit Wnt signaling. Verteporfin (2 μM; Tocris, 5305) was used to inhibit YAP/TEAD interaction. For testing whether a single EPS cell forms into a blastoid, WT cells and Puromycin+/mcherry+ cells were mixed at a ratio of 10:1 and seeded onto Aggrewell 400 as stated above. Puromycin (0.25 μg/ml; InvivoGen, ant-pr-1) was added to the medium 24 hours later to eliminate helper cells gradually.

The next test relates to EPS cells. Nature of the test: EPS cell survival on the day of seeding. The test is classed as cell-based, mouse. The note with it: treated on the day of seeding.
The subject of the next test is mouse ESCs. The note with it: He et al., 2008; cited from earlier work.

With `O=C(Nc1cccc2cccnc12)c1ccc(N2C(=O)[C@@H]3[C@H](C2=O)[C@@H]2C=C[C@H]3C2)cc1` [IWR-1-endo], the “Nblastoid/Ntotal (%), EPS-blastoid efficiency with treatment of Wnt antagonists” value in test [1] (per experiment) is 0.28% and 0.41% and 1.23% and 0.81% and 0.42%. In addition, the “EPS-blastoids formation (effect of WNT antagonists, in words)” value in test [1] was “significantly inhibited”.
As for `Oc1nc(-c2ccc(C(F)(F)F)cc2)nc2c1CSCC2` [XAV939], the “Nblastoid/Ntotal (%), EPS-blastoid efficiency with treatment of Wnt antagonists” value in test [1] (per experiment, listed as XVA939) was 0.3% and 0.28% and 0.45% and 0.41% and 0.8%. In addition, the “EPS-blastoids formation (effect of WNT antagonists, in words)” value in test [1] was “significantly inhibited”.
Turning to `C[C@@H](N)[C@H]1CC[C@H](C(=O)Nc2ccncc2)CC1` [Y-27632], in the test with EPS cells, the “cell survival of EPS cells” value was “enhanced cell survival”.
On to verteporfin [VP], for which the “Nblastoid/Ntotal (%), EPS-blastoid efficiency with treatment of YAP-TEAD inhibitor” value in test [1] (verteporfin 2 μM added to medium at day 1, five days of blastoid induction, per experiment) was 1.43% and 0.36% and 0.87% and 1.05%.

B1: Wnt-3a (protein, UniProt P56704 19-352, looked up)
Protein Wnt-3a: SYPIWWSLAVGPQYSSLGSQPILCASIPGLVPKQLRFCRNYVEIMPSVAEGIKIGIQECQHQFRGRRWNCTTVHDSLAIFGPVLDKATRESAFVHAIASAGVAFAVTRSCAEGTAAICGCSSRHQGSPGKGWKWGGCSEDIEFGGMVSREFADARENRPDARSAMNRHNNEAGRQAIASHMHLKCKCHGLSGSCEVKTCWWSQPDFRAIGDFLKDKYDSASEMVVEKHRESRGWVETLRPRYTYFKVPTERDLVYYEASPNFCEPNPETGSFGTRDRTCNVSSHGIDGCDLLCCGRGHNARAERRREKCRCVFHWCCYVSCQECTRVYDVHTCK
notes: Wnt agonist protein
As for B1, the “CDX2 (trophoblast transcription factor) expression in mouse ESCs” value in the test with mouse ESCs is “transiently up-regulates CDX2”.
